Experimental data reported in patent publication US7537765B2, “Inhibition of HIV-1 replication by disruption of the processing of the viral capsid-spacer peptide 1 protein” (priority 2003, dated 2009).
pIC50: −log10 of the molar value. Like-named read-outs stand apart in the source and are kept apart here.

Assays:
Format in all cases: cell-based
[1] = tested on: NNRTI-resistant HIV-1 isolates; assay: NNRTI-resistant HIV-1 isolates in MT-2 cells, cell viability (XTT) endpoint; conditions: X4, MT-2 cells, read-out: IC50
Description: The activity of DSB was tested against a panel of HIV-1 isolates resistant to approved drugs. These viruses were obtained from the NIH AIDS Research and Reference Reagent Program. Assays were performed using virus propagated in PBMCs with a p24 endpoint (above), or using cell line targets (MT-2 cells) and a cell killing endpoint. The MT-2 assay format was as follows. Serial dilutions of DSB, or each approved drug, were prepared in 96 well plates. To each sample well was added media containing MT-2 cells at 3×10^5 cells/mL and virus inoculum at a concentration necessary to result in 80% killing of the cell targets at 5 days post-infection (PI). On day 5 post-infection, virus-induced cell killing was determined by the XTT method and the inhibitory activity of the compound was determined.

[2] = tested on: DSB-resistant HIV-1 viruses; assay: Western blot of CA-SP1 cleavage in drug-resistant viruses; conditions: drug-resistant viruses in the presence of DSB
Description: To determine if the resistant viruses were able to escape the CA-SP1 cleavage defect caused by DSB in wild-type virus, stocks of each virus grown in either the presence or absence of drug were analyzed by Western blot. Virus was pelleted through a 20% sucrose cushion from filtered culture supernatants that were collected 60 hr post-infection and 18 hr after the cells had been washed and fresh drug added. The viruses were lysed, and the amount of each virus was normalized by quantitating p24 levels in each sample.

[3] = tested on: HIV-1 NL4-3 SP1 point deletion mutants; assay: CA-SP1 processing of NL4-3 SP1 point deletion mutants in transfected HeLa cells (Western blot)
Description: To characterize the effect of deletion or substitution on viral particle production and Gag polyprotein processing, wild-type HIV-1 NL4-3 or SIVmac239 and respective mutant proviral DNAs were transfected into HeLa cells by employing FuGENE 6 transfection reagent (Roche). Briefly, cells were seeded into a 6-well plate (Corning) at a concentration of 0.5×10^5 per well the day before transfection to reach 60 to 80% confluence on the day of transfection. For each transfection, 3 μl of FuGENE 6 was diluted into 100 μl of serum-free DMEM followed by the addition of 1 μg of DNA. After gently mixing, the mixture of DNA-lipid complexes was gently added drop wise into the cells containing 2 ml of complete DMEM medium. Twenty-four hours post-transfection, medium containing DNA-FuGENE 6 complexes was removed, 2 ml of fresh DMEM was added into the transfected cells. […] The level of viral particle production for wild type NL4-3 and point deletion mutants was determined by p24 antigen capture ELISA (ZeptoMetrix, Buffalo, N.Y.). […]
Sensitivity to DSB was determined in experiments that characterized the effect of DSB on a late step in Gag processing, CA-SP1 cleavage.
Specifically, these assays measured the ability of DSB to disrupt CA-SP1 processing.

## C=C(C)[C@@H]1CC[C@]2(C(=O)O)CC[C@]3(C)[C@H](CC[C@@H]4[C@@]5(C)CC[C@H](OC(=O)CC(C)(C)C(=O)O)C(C)(C)[C@@H]5CC[C@]43C)[C@@H]12 [DSB, 3-O-(3′,3′-dimethylsuccinyl)betulinic acid]
[1]; isolate 3, NNRTI-resistant, Y181C
  pIC50: 9.00
[1]; isolate 4, NNRTI-resistant, K103N Y181C
  pIC50: 8.89
[2]
  CA-SP1 product in virus (Western blot): did not contain the CA-SP1 product
[3]; point deletions starting with residue T372 and extending away from the cleavage site, 1 μg/ml
  effect on CA-SP1 processing: fully sensitive to DSB-induced disruption of CA-SP1 processing
[3]; single residue deletion at any of positions E365 through V370, 1 μg/ml
  effect on CA-SP1 processing: significantly reduces the affect of DSB on CA-SP1 processing
